# Assay results published in PubChem BioAssay (NCI).
#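 Each compound was tested at five concentrations against cells in 96-well plates for 48 hours. Abbreviation: GI50, concentration required for 50% inhibition of growth. TGI: concentration producing complete growth inhibition.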
# Key:
# Assay in all cases: inhibition of tumour cell growth, NCI panel, 48 h
# 786-0 renal = system: 786-0 renal
# A498 renal = system: A498 renal
# A549 NSCLC = system: A549 NSCLC
# ACHN renal = system: ACHN renal
# BT-549 breast = system: BT-549 breast
# CAKI-1 renal = system: CAKI-1 renal
# CCRF-CEM leukemia = system: CCRF-CEM leukemia
# COLO 205 colon = system: COLO 205 colon
# DU-145 prostate = system: DU-145 prostate
# EKVX NSCLC = system: EKVX NSCLC
# HCC-2998 colon = system: HCC-2998 colon
# HCT-116 colon = system: HCT-116 colon
# HCT-15 colon = system: HCT-15 colon
# HL-60(TB) leukemia = system: HL-60(TB) leukemia
# HOP-62 NSCLC = system: HOP-62 NSCLC
# HOP-92 NSCLC = system: HOP-92 NSCLC
# HS 578T breast = system: HS 578T breast
# HT29 colon = system: HT29 colon
# IGROV1 ovarian = system: IGROV1 ovarian
# K-562 leukemia = system: K-562 leukemia
# KM12 colon = system: KM12 colon
# LOX IMVI melanoma = system: LOX IMVI melanoma
# M14 melanoma = system: M14 melanoma
# MALME-3M melanoma = system: MALME-3M melanoma
# MCF7 breast = system: MCF7 breast
# MDA-MB-231 breast = system: MDA-MB-231 breast
# MDA-MB-435 = system: MDA-MB-435
# MOLT-4 leukemia = system: MOLT-4 leukemia
# NCI-H226 lung = system: NCI-H226 lung
# NCI-H23 lung = system: NCI-H23 lung
# NCI-H460 lung = system: NCI-H460 lung
# NCI-H522 lung = system: NCI-H522 lung
# NCI/ADR-RES ovarian = system: NCI/ADR-RES ovarian
# OVCAR-3 ovarian = system: OVCAR-3 ovarian
# OVCAR-4 ovarian = system: OVCAR-4 ovarian
# OVCAR-5 ovarian = system: OVCAR-5 ovarian
# OVCAR-8 ovarian = system: OVCAR-8 ovarian
# PC-3 prostate = system: PC-3 prostate
# RPMI-8226 leukemia = system: RPMI-8226 leukemia
# RXF 393 renal = system: RXF 393 renal
# SF-268 CNS = system: SF-268 CNS
# SF-295 CNS = system: SF-295 CNS
# SF-539 CNS = system: SF-539 CNS
# SK-MEL-2 melanoma = system: SK-MEL-2 melanoma
# SK-MEL-28 melanoma = system: SK-MEL-28 melanoma
# SK-MEL-5 melanoma = system: SK-MEL-5 melanoma
# SK-OV-3 ovarian = system: SK-OV-3 ovarian
# SN12C renal = system: SN12C renal
# SNB-19 CNS = system: SNB-19 CNS
# SNB-75 CNS = system: SNB-75 CNS
# SR leukemia = system: SR leukemia
# SW-620 colon = system: SW-620 colon
# T-47D breast = system: T-47D breast
# TK-10 renal = system: TK-10 renal
# U251 CNS = system: U251 CNS
# UACC-257 melanoma = system: UACC-257 melanoma
# UACC-62 melanoma = system: UACC-62 melanoma
# UO-31 renal = system: UO-31 renal
compound,measurement,setting,value
O=C(/C=C/c1cc(Cl)ccc1Cl)Nc1ncc(Cc2ccc(Cl)cc2)s1,GI50,786-0 renal,112 nM
same,TGI,786-0 renal,3.24 µM
same,GI50,A498 renal,31.6 nM
same,TGI,A498 renal,235 nM
same,GI50,A549 NSCLC,99.2 nM
same,TGI,A549 NSCLC,13 µM
same,GI50,ACHN renal,128 nM
same,TGI,ACHN renal,5.29 µM
same,GI50,BT-549 breast,57.4 nM
same,TGI,BT-549 breast,379 nM
same,GI50,CAKI-1 renal,61.8 nM
same,TGI,CAKI-1 renal,2170 nM
same,GI50,CCRF-CEM leukemia,37.6 nM
same,TGI,CCRF-CEM leukemia,> 100 µM
same,GI50,COLO 205 colon,82.3 nM
same,TGI,COLO 205 colon,378 nM
same,GI50,DU-145 prostate,300 nM
same,TGI,DU-145 prostate,15.9 µM
same,GI50,EKVX NSCLC,158 nM
same,TGI,EKVX NSCLC,> 72.9 µM
same,GI50,HCC-2998 colon,209 nM
same,TGI,HCC-2998 colon,10.7 µM
same,GI50,HCT-116 colon,42 nM
same,TGI,HCT-116 colon,5.85 µM
same,GI50,HCT-15 colon,44.8 nM
same,TGI,HCT-15 colon,> 37.9 µM
same,GI50,HL-60(TB) leukemia,28.2 nM
same,TGI,HL-60(TB) leukemia,256 nM
same,GI50,HOP-62 NSCLC,80.3 nM
same,TGI,HOP-62 NSCLC,6.03 µM
same,GI50,HOP-92 NSCLC,715 nM
same,TGI,HOP-92 NSCLC,5.87 µM
same,GI50,HS 578T breast,52.4 nM
same,TGI,HS 578T breast,6.18 µM
same,GI50,HT29 colon,86.8 nM
same,TGI,HT29 colon,1210 nM
same,GI50,IGROV1 ovarian,165 nM
same,TGI,IGROV1 ovarian,16.3 µM
same,GI50,K-562 leukemia,35.2 nM
same,TGI,K-562 leukemia,> 100 µM
same,GI50,KM12 colon,53.5 nM
same,TGI,KM12 colon,> 28.1 µM
same,GI50,LOX IMVI melanoma,101 nM
same,TGI,LOX IMVI melanoma,11.3 µM
same,GI50,M14 melanoma,40.5 nM
same,TGI,M14 melanoma,1490 nM
same,GI50,MALME-3M melanoma,866 nM
same,TGI,MALME-3M melanoma,43.3 µM
same,GI50,MCF7 breast,83.3 nM
same,TGI,MCF7 breast,> 38.8 µM
same,GI50,MDA-MB-231 breast,179 nM
same,TGI,MDA-MB-231 breast,9.53 µM
same,GI50,MDA-MB-435,19.2 nM
same,TGI,MDA-MB-435,41.4 nM
same,GI50,MOLT-4 leukemia,122 nM
same,TGI,MOLT-4 leukemia,> 100 µM
same,GI50,NCI-H226 lung,310 nM
same,TGI,NCI-H226 lung,12 µM
same,GI50,NCI-H23 lung,67.3 nM
same,TGI,NCI-H23 lung,11 µM
same,GI50,NCI-H460 lung,64 nM
same,TGI,NCI-H460 lung,1510 nM
same,GI50,NCI-H522 lung,33.3 nM
same,TGI,NCI-H522 lung,155 nM
same,GI50,NCI/ADR-RES ovarian,42.9 nM
same,TGI,NCI/ADR-RES ovarian,2280 nM
same,GI50,OVCAR-3 ovarian,113 nM
same,TGI,OVCAR-3 ovarian,1280 nM
same,GI50,OVCAR-4 ovarian,1590 nM
same,TGI,OVCAR-4 ovarian,10.8 µM
same,GI50,OVCAR-5 ovarian,197 nM
same,TGI,OVCAR-5 ovarian,13.8 µM
same,GI50,OVCAR-8 ovarian,69.5 nM
same,TGI,OVCAR-8 ovarian,1840 nM
same,GI50,PC-3 prostate,105 nM
same,TGI,PC-3 prostate,> 53.7 µM
same,GI50,RPMI-8226 leukemia,67.4 nM
same,TGI,RPMI-8226 leukemia,16.5 µM
same,GI50,RXF 393 renal,27.6 nM
same,TGI,RXF 393 renal,306 nM
same,GI50,SF-268 CNS,1170 nM
same,TGI,SF-268 CNS,52.9 µM
same,GI50,SF-295 CNS,38.2 nM
same,TGI,SF-295 CNS,5.13 µM
same,GI50,SF-539 CNS,32.8 nM
same,TGI,SF-539 CNS,202 nM
same,GI50,SK-MEL-2 melanoma,144 nM
same,TGI,SK-MEL-2 melanoma,4.52 µM
same,GI50,SK-MEL-28 melanoma,1980 nM
same,TGI,SK-MEL-28 melanoma,53.4 µM
same,GI50,SK-MEL-5 melanoma,299 nM
same,TGI,SK-MEL-5 melanoma,5.19 µM
same,GI50,SK-OV-3 ovarian,78.7 nM
same,TGI,SK-OV-3 ovarian,17 µM
same,GI50,SN12C renal,150 nM
same,TGI,SN12C renal,11.7 µM
same,GI50,SNB-19 CNS,70.2 nM
same,TGI,SNB-19 CNS,31.4 µM
same,GI50,SNB-75 CNS,39.1 nM
same,TGI,SNB-75 CNS,2470 nM
same,GI50,SR leukemia,32.4 nM
same,TGI,SR leukemia,> 100 µM
same,GI50,SW-620 colon,45.4 nM
same,TGI,SW-620 colon,> 100 µM
same,GI50,T-47D breast,14.1 µM
same,TGI,T-47D breast,> 100 µM
same,GI50,TK-10 renal,1300 nM
same,TGI,TK-10 renal,11.1 µM
same,GI50,U251 CNS,39.5 nM
same,TGI,U251 CNS,3.88 µM
same,GI50,UACC-257 melanoma,226 nM
same,TGI,UACC-257 melanoma,> 46.9 µM
same,GI50,UACC-62 melanoma,50.7 nM
same,TGI,UACC-62 melanoma,18 µM
same,GI50,UO-31 renal,142 nM
same,TGI,UO-31 renal,7.36 µM
